Molecular target: T1, human full-length MKNK1 (Homo sapiens, UniProt Q9BUB5, T385D)
T1 construct: GST (N); purchased Carna Biosciences 02-145; host or cells: insect cells (baculovirus expression system)
Test: MKNK1 kinase high ATP assay (TR-FRET)
Type: biochemical
Details: TR-FRET, 2 mM ATP (high ATP), 15 min preincubation with enzyme, 30 min reaction at 22° C.; read-out: MKNK1 IC50
In short: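 Full-length human MKNK1 (T385D) preincubated 15 min at 22 °C with compound in HEPES pH 7.5/MgCl2/DTT buffer; reaction with 2 mM ATP (final) and 0.06 μM biotinylated peptide (final), 30 min at 22 °C.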

T1 sequence (Q9BUB5 1-424 isoform Q9BUB5-2 T344D): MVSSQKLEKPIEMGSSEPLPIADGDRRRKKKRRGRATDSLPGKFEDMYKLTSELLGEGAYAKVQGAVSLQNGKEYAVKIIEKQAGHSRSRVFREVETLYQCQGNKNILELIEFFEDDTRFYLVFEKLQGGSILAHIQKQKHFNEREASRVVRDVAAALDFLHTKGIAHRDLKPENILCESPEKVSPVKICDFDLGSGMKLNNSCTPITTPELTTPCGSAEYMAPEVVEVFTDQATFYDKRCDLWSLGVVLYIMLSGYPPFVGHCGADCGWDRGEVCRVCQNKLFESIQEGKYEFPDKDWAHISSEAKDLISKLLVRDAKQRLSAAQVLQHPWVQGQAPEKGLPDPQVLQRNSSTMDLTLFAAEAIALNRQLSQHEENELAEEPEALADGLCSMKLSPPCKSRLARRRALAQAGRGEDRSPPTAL

IC50 [nM] | SMILES
0.4 | C[C@@H]1COCCN1C(=O)[C@H]1CCc2c(sc3ncnc(Nc4cc(Cl)c5n(c4=O)C(C)(C)NC5=O)c23)C1 [Example 117, 8-chloro-3,3-dimethyl-6-({(7S)-7-[(3R)-3-methylmorpholine-4-carbonyl]-5,6,7,8-tetrahydro[1]benzothieno[2,3-d]pyrimidin-4-yl}amino)-2,3-dihydroimidazo[1,5-a]pyridine-1,5-dione]
0.4 | O=C1NC2(CCC2)n2c1c(Cl)cc(Nc1ncnc3sc4c(c13)CC[C@H](C(=O)N1C[C@H]3C[C@@H]1CO3)C4)c2=O [Example 118, 8′-chloro-6′-({(7S)-7-[(1R,4R)-2-oxa-5-azabicyclo[2.2.1]heptan-5-ylcarbonyl]-5,6,7,8-tetrahydro[1]benzothieno[2,3-d]pyrimidin-4-yl}amino)-2′H-spiro[cyclobutane-1,3′-imidazo[1,5-a]pyridine]-1′,5′-dione]
0.9 | NC(=O)[C@H]1CCc2c(sc3ncnc(Nc4cc(Cl)c5n(c4=O)C4(CSC4)NC5=O)c23)C1 [Example 119, (7S)-4-[(8-chloro-1,5-dioxo-1,5-dihydro-2H-spiro[imidazo[1,5-a]pyridine-3,3′-thietan]-6-yl)amino]-5,6,7,8-tetrahydro[1]benzothieno[2,3-d]pyrimidine-7-carboxamide]

From patent US20190388425A1, “SUBSTITUTED IMIDAZOPYRIDINPYRIMIDINES” (Bayer Pharma Aktiengesellschaft, priority 2017, published 2019)
